Consider four compounds from patent publication US10556907B2 (AbbVie Inc., priority 2015, dated 2020).

The structures appear in SMILES notation.

The conditions of test [1]: in vivo; cited from earlier work.
The test system of another test is monocytes. To be noted: cited from earlier work.
For test [2] the following is noted: in vivo; cited from earlier work. The source holds these as a separate data set.
Test [3] deals with T1, human EDG1 (S1PR1) receptor (Homo sapiens, UniProt P21453).
T1 construct: expressed in transfected cells; host or cells: CHO (clone CHO-A21-Edg1 #17)
As to the kind of experiment: Method 2: Aequorin assay, cell clone CHO-A21-Edg1 #17. It is filed as cell-based. As to conditions: (2): determined with method 2; read-out: S1P1 EC50. As to the method:
(§1) Agonistic activity was measured using two different methods, described below.
(§2) Genetically Engineered Cells
(§3) Cell clone CHO-A21-Edg1 #17 carries the transgenes human EDG1 (S1PR1) receptor (Accession number NP_001391.2), mitochondrially targeted Aequorin (active part corresponds to accession number 1SL8_A) and chimaeric Gaqi5=Gaq modified with the 5 C-terminal amino-acids replaced with those of the Gai protein (DCGLF). CHO-A2-S1P3 Mix is a cell pool ectopically expressing human EDG3 (S1PR3) receptor (Accession number NP_005217.2) mitochondrially targeted Aequorin (active part has a sequence similar to accession number AY601106.1) and GNA16 (Accession number NP_002059.3). Cell clone CHO-A21-EDG8 #12 carries the transgenes human EDG8 (S1PR5) receptor (Accession number NP_110387.1), mitochondrially expressed Aequorin (active part corresponds to accession number 1SL8_A) and chimaeric Gaqi5 (Gaq modified to present the 5 last amino-acids of the Gai protein “DCGLF”; see above). Cells are grown to mid-log phase in culture medium (HAM's F12, 10% FBS, 100 IU/mL penicillin, 100 μg/mL streptomycin, 250 μg/mL Zeocin, 400 μg/mL G418). 18 hours prior to frozen cells preparation, the medium is changed to remove the antibiotics.
(§4) 18 hours prior to the test, vials of frozen cells are quickly thawed in a 37° C. water bath, cells are recovered by centrifugation and resuspended in assay buffer (DMEM/HAM's F12 with HEPES, without phenol red+0.1% fatty acid-free BSA). Cells are gently agitated in suspension overnight at RT in presence of 5 μM of Coelenterazine h (Molecular Probes). On the day of the test, cells are diluted to their final working concentrations in assay buffer and agitated in suspension for 1 h at RT. Cells are then placed in the luminescence reader (Hamamatsu Functional Drug Screening System 6000, FDSS6000). During cells incubation, compounds are prepared in 100% DMSO, and subsequently diluted in assay buffer. Compounds are then dispensed in the assay plate (black, clear-bottom, 384-well plate). After binding of agonists to the human S1P receptor the intracellular calcium concentration increases and binding of calcium to the Aequorin/Coelenterazine complex leads to an oxidation reaction of coelenterazine, which results in the production of […], coelenteramide, CO2 and light (Dmax 469 nm). The luminescent response is dependent on the agonist concentration. For agonist testing, 30 μL of cell suspension are injected on 30 μL of test compound or reference agonist in the assay plate. The resulting emission of light is recorded for 90 seconds using the FDSS6000. Dose response curves with the reference compounds are performed before testing the compounds. S1P is the reference agonist and JTE-013 the reference antagonist for S1P2. […]
(§5) Luminescence data are integrated over the reading interval for agonist and antagonist modes. To standardize the emission of recorded light (determination of the “100% signal”) across plates and across different experiments, some of the wells contain 100 μM digitonin or a saturating concentration of ATP (20 μM). Plates also contain the reference agonist at a concentration equivalent to the EC80 obtained during the test validation and the EC100. Dose-response data from test compounds were analyzed with XLfit (IDBS) software using nonlinear regression applied to a sigmoidal dose-response model and the following equation: • XL Fit fit Model 203: 4 Parameter Logistic Model • A: Bottom • B: TOP • C: LogEC50 • D: Hill fit=(A+((B−A)/(1+(((10^C)/x)^D)))) inv=((10^C)/((((B−A)/(y−A))−1)^(1/D))) res=(y−fit)

The target of test [4] is T2, human EDG8 (S1PR5) receptor (Homo sapiens, UniProt Q9H228).
T2 construct: expressed in transfected cells; host or cells: CHO (clone CHO-A21-EDG8 #12)
As to the kind of experiment: Method 2: Aequorin assay, cell clone CHO-A21-EDG8 #12. Format: cell-based. As to conditions: agonist potency, determined with method 2 (symbols E-G); read-out: S1P5 EC50 range. As to the method: as §1, §2, §3, §4, §5

The target of test [5] is T3, human EDG3 (S1PR3) receptor (Homo sapiens, UniProt Q99500).
T3 construct: expressed in transfected cells; host or cells: CHO (cell pool CHO-A2-S1P3 Mix)
As to the kind of experiment: Method 2: Aequorin assay, cell pool CHO-A2-S1P3 Mix. Format: cell-based. As to conditions: (2): determined with method 2. As to the method:
as §1, §2, §3, §4, §5

In a further test the target is T4, human S1PR4 receptor (Homo sapiens, UniProt O95977).
T4 construct: host or cells: CHO-K1
T4 sequence (O95977 1-384): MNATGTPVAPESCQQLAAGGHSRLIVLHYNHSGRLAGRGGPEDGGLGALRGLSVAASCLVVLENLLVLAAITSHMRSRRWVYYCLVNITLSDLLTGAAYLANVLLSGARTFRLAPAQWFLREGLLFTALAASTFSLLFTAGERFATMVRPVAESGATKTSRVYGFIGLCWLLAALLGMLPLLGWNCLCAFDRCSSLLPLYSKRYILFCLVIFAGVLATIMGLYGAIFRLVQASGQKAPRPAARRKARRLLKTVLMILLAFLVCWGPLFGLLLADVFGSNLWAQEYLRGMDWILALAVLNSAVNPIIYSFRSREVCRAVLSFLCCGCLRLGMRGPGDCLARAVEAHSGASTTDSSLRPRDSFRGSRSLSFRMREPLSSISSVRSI
As to the kind of experiment: Method 1: intracellular Ca2+ release (FLIPR, Calcium 5) in recombinant CHO-K1 cells. To be noted: (1): determined with method 1; read-out: S1P4 EC50. Format: cell-based. A digest of the protocol:
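Read-out: FLIPR Tetra fluorescence of Calcium 5-loaded CHO-K1 cells (receptor + aequorin + Gq/i5) after agonist addition at RT. Values are EC50s from nonlinear fits normalized to the phospho-fingolimod reference curve. Buffer HBSS with Ca2+/Mg2+, Hepes, probenecid, 0.1% BSA, pH 7.4.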

T3 sequence (Q99500 whole entry): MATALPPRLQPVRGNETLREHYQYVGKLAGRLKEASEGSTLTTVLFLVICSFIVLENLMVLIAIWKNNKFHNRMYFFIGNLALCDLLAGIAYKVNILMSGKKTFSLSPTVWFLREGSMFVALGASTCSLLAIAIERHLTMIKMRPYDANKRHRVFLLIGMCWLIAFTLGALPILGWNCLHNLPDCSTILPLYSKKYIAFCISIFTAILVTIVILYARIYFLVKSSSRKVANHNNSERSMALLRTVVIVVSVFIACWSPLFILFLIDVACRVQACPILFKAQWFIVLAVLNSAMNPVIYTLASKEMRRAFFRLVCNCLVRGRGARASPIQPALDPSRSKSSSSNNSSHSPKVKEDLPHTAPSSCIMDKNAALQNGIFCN
T1 sequence (P21453 whole entry): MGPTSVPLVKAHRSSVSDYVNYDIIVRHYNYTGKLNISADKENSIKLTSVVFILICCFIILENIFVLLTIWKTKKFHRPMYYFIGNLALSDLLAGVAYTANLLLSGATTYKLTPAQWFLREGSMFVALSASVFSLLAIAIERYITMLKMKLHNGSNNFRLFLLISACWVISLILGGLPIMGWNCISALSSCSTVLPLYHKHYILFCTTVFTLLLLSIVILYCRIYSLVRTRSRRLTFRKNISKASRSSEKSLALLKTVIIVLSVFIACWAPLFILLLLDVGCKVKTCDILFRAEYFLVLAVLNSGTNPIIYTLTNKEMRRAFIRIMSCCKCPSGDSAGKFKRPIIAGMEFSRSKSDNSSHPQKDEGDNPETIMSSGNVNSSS
T2 sequence (Q9H228 whole entry): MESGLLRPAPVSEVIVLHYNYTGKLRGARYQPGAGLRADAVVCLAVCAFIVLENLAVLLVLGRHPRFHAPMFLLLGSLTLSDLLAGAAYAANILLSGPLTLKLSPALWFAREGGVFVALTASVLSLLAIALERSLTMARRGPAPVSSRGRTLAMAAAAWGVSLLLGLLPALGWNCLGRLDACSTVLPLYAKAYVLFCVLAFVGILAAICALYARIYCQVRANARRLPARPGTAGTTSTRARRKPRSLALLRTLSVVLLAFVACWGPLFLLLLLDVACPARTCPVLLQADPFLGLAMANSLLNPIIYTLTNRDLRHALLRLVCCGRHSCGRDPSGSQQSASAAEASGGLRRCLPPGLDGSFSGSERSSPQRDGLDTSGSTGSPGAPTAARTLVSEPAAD

Take `CCCCCCCCc1ccc(CCC(N)(CO)CO)cc1` [FTY720/FIngolimod]: the “nociceptive behavior in neuropathic pain models” value in test [1] is on record as “able to reduce nociceptive behavior”. For the same compound, the “Aβ-induced migration of monocytes to sites of injury” value with monocytes is “inhibits such migration”. Besides, the Aβ-induced memory deficits result in test [2] was “able to modulate Aβ-induced memory deficits”.
Broadly, the EC50 is the midpoint of the concentration-response curve. `O=C(O)C1CC(N2CCc3nc(-c4ccc(OCc5cccc(F)c5)cc4)ncc3C2)C1` (centres unmarked) [Compound 52, 3-(2-(4-((3-fluorobenzyl)oxy)phenyl)-7,8-dihydropyrido[4,3-d]pyrimidin-6(5H)-yl)cyclobutanecarboxylic acid]: the EC50 in test [3] was over 1000 nM; in test [4], 1000 to 10000 nM; in test [5], over 1000 nM; on human S1PR4 receptor, over 1000 nM.
In the case of `FC(F)(F)c1cccc(-c2noc(-c3cc(-c4ccccc4)c(C(F)(F)F)s3)n2)c1` [SEW2817], the “nociceptive behavior in neuropathic pain models” value in test [1] is given as “fails to have an effect”.
Regarding `O=C(O)CCN1CCc2nc(-c3ccc(OCc4ccccc4)c(Cl)c3)ccc2C1` [Compound 144, 3-(2-(4-(benzyloxy)-3-chlorophenyl)-7,8-dihydro-1,6-naphthyridin-6(5H)-yl)propanoic acid], the concentration for a half-maximal effect (EC50) in test [3] is over 1000 nM; in test [4], 100 to 1000 nM; in test [5], over 1000 nM.
